Reference: patent publication US5834499A, “5-HT3 receptor agonist, novel thiazole derivative and intermediate thereof” (Yamanouchi Pharmaceutical Co., Ltd., priority 1994, dated 1998)

Legend:
[1] = molecular target: T1, 5-HT3 receptor (Cavia porcellus, UniProt O70212); assay: contractile effects on the isolated colon from a guinea pig (5-HT3 receptor agonistic activity); design: species or system guinea pig (male Hartley); conditions: for Emax: guinea pig, read-out: Max. response; for Relative potency: relative EC50 value, based on that of 5-HT as standard value (1)
T1 construct: Distal colons were excised from male Hartley guinea pigs; from tissue; host or cells: distal colon strips of male Hartley guinea pigs
T1 sequence (O70212 24-490 limits assumed): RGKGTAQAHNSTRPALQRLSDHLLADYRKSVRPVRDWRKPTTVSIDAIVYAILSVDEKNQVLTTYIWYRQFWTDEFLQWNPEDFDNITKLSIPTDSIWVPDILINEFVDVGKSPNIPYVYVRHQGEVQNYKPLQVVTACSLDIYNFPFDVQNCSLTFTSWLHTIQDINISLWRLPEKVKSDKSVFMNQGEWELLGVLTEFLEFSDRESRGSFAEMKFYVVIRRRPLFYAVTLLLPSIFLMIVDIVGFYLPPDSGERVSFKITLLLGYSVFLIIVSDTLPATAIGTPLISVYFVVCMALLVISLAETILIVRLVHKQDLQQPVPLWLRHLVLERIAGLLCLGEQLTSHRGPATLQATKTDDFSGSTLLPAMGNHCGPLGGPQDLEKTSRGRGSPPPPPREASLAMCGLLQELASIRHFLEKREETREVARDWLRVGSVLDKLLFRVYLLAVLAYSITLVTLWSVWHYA
From the text: Distal colons were excised from male Hartley guinea pigs (500 to 800 g) to prepare strips of about 20 mm.
Each strip was longitudinally suspended in an organ bath, and contractile response was isometrically measured.

[2] = system: 5-HT3 receptor; assay: Facilitation of defecation in rat; assay type: in vivo, rat (male Wistar); conditions: 10 mg/kg s.c.; number of feces excreted for four hours after administration
Procedure: In the male Wistar rat (200-300 g), facilitating effects on defecation by stimulation of 5-HT3 receptor [Miyata et al., J. Pharmacol. Exp. Ther., 261, 297 (1992)] were studied. The compound (10 mg/kg) was subcutaneously administered to the rat and the number of feces excreted for four hours after the administration was counted.

SMILES	Emax [1] [%]	Relative potency [1]	facilitating effect on defecation [2]
NCCc1nc2c(s1)Cc1ccccc1-2.O=C(O)/C=C/C(=O)O [Ex. 9, 2-(2-aminoethyl)-8H-indeno[1,2-d]thiazole fumarate]	75	1/2	–
c1ccc2c(c1)Cc1sc(C3CCNC3)nc1-2 (centres unmarked) [Ex. 52, 2-(3-pyrrolidinyl)-8H-indeno[1,2-d]thiazole]	77	–	exhibited facilitating effect on defecation
NC1(CCc2nc3c(s2)Cc2ccccc2-3)CCCCC1 [Ex. 70, 2-[2-(1-aminocyclohexyl)ethyl]-8H-indeno[1,2-d]thiazole]	23	–	–
c1ccc2c(c1)Cc1sc(CCN3CCCCC3)nc1-2 [Ex. 71, 2-(2-piperidinoethyl)-8H-indeno[1,2-d]thiazole]	51	–	–
c1ccc2c(c1)Cc1sc([C@@H]3C[C@@H]4CCCN4C3)nc1-2 (relative stereo) [Ex. 66, (3R*,5S*)-3-(8H-indeno[1,2-d]thiazol-2-yl)-1-azabicyclo[3.3.0]octane hemifumarate]	57	–	–
c1csc(-c2csc(CC3CCCCN3)n2)c1 (centres unmarked) [Ex. 59, 2-[[4-(2-Thienyl)-2-thiazolyl]methyl]piperidine hemifumarate]	45	1/3	–
O=C(O)/C=C/C(=O)O.c1ccc(-c2csc(C3CCCNC3)n2)cc1 (centres unmarked) [Ex. 46, 4-Phenyl-2-(3-piperidyl)thiazole fumarate]	52	1/2	–
